Data as given in ChEMBL document CHEMBL2380252, “Optimized method of G-protein-coupled receptor homology modeling: its application to the discovery of novel CXCR7 ligands” (J Med Chem, 2013).

biological target: T1, Atypical chemokine receptor 3 (Homo sapiens, UniProt P25106); assay: Binding affinity to CXCR7 (unknown origin)
T1 sequence (P25106 whole entry): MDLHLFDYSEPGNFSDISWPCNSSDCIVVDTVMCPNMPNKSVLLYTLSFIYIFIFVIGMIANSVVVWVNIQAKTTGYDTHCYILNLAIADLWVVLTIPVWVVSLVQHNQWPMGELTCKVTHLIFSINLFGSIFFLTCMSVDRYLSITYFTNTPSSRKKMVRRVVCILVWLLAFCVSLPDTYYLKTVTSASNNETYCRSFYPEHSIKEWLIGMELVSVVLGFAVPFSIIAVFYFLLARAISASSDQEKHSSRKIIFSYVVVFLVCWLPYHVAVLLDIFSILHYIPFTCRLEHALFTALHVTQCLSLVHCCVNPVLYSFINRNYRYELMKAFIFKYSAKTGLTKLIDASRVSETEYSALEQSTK

IC50 [µM] | Structure (SMILES)
6.33 | O=C(c1cc2c(s1)-c1ccc(Cl)cc1SC2)N1CCC(N2CCCCC2)CC1
< 0.1 | COc1c(C)cc2cccnc2c1N1CCCN(C(C(=O)N2CCNCC2)c2csc(C(C)C)n2)CC1 (stereo not given)
< 1 | COc1ccc2c(c1)c1c(cnn1CC(=O)NCCN(C)C1CCCCC1)c(=O)n2C
4.74 | CCc1ccc(NC(=O)CSc2nc3ccccc3c(=O)n2CCCC(=O)NCN2CCOCC2)cc1

biological target: T1, Atypical chemokine receptor 3; assay: Displacement of [125I]SDF-1alpha from CXCR7 (unknown origin) expressed in CHO cells after 1 hr by TopCount scintillation counting analysis; assay type: cell-based

Structure (SMILES) | IC50 [µM]
CCN1CCc2nc3sc(C(=O)N4CCc5ccccc5C4)c(N)c3cc2C1 | 10
CC1CCCCN1CCNC(=O)c1cc2c(s1)-c1ccc(Cl)cc1SC2 (stereo not given) | 5.27
CN(C)c1ccc(/C=C2\SC(N3CCN(CCO)CC3)=NC2=O)cc1 | 5.36
CN(Cc1ccccc1NC(=O)/C=C/c1cnn(-c2ccccc2)c1)C1CCCCC1 | 5.84
CCN1CCCC1CNC(=O)CN1C(=O)/C(=C/c2ccccc2F)Sc2ccccc21 (stereo not given) | 6.19
CCN1CCCC1CNC(=O)c1ccc(-n2ccc3ccccc32)s1 (stereo not given) | 6.75
Cc1ccc2[nH]c(=O)c3cc(C(=O)NCCN4CCCCCC4)sc3c2c1 | 7
CC1CCCCN1CC(O)COc1ccc2c3c(c(=O)oc2c1)CCC3 (stereo not given) | 8.02
CCOc1cc(NC(=S)NCCCN(C)C)c(OCC)cc1NC(=O)c1ccc(C)cc1 | 9.79
O=C(NCCCN(Cc1ccco1)C1CCCC1)c1cc2c(s1)-c1ccccc1SC2 | 11.4

Other lines, results leading:

IC50 [µM] | Structure (SMILES)
4.35 | Cc1ccc(C(=O)Nc2ncc(CN3CCC(c4ccccc4)C3)s2)cc1 (stereo not given)
3.89 | CCCCN(CC)CCNC(=O)c1ccc(N2CCc3ccccc32)s1
3.2 | O=C(c1ccc(N2CCc3ccccc32)s1)N1CCC(N2CCCCC2)CC1
2.92 | Cc1ccc2c(c1)-c1onc(C(=O)NCCCN3CC(C)CC(C)C3)c1CO2 (stereo not given)
2.78 | CCC(C(=O)NCCCN(CC)Cc1ccccc1)n1nc(C)c2sc3ccccc3c2c1=O (stereo not given)
2.64 | Cc1ccc2c(c1)-c1onc(C(=O)NCCN3CCCCC3C)c1CO2 (stereo not given)
2.21 | CN(CCCNC(=O)c1cc2c(=O)n(C)c3ccccc3c2s1)Cc1ccccc1
2.16 | CCC1CCCCN1CCCNC(=O)CSc1cc(=O)n(C)c2ccc(Cl)cc12 (stereo not given)
1.87 | COc1ccccc1C(CNC(=O)c1cc(-c2ccc(Br)cc2)on1)N1CCC(C)CC1 (stereo not given)
1.49 | Cc1cc(OCC(=O)NC2CCN(Cc3ccccc3)CC2)c2c(C)cc(=O)oc2c1
1.29 | CC1CCCN(CC(O)COc2ccc3c4c(c(=O)oc3c2)CCC4)C1 (stereo not given)
